Source: patent publication US20250092065A1, “2-(INDAZOL-5-YL)-6-(PIPERIDIN-4-YL)-1,7-NAPHTHYRIDINE DERIVATIVES AND RELATED COMPOUNDS AS MODULATORS FOR SPLICING NUCLEIC ACIDS AND FOR THE TREATMENT OF PROLIFERATIVE DISEASES” (REMIX THERAPEUTICS INC., priority 2022, published 2025)
Read-outs that look alike come from different tables or passages of the source.

What was measured:
HTT mRNA = assay: RT-qPCR splicing assay, HTT mRNA canonical (CJ) and alternative (AJ) junction; format: cell-based, human; conditions: Homo sapiens; for AC50: HTT alternative junction mRNA, read-out: HTT AJ (increase in AJ mRNA, AC50)
Summary of the method: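 Canonical and alternative-exon junction isoforms were quantified by RT-qPCR in cell lysates, with ΔCt against a housekeeper (GAPDH/GUSB/PPIA), then ΔΔCt vs DMSO, converted to 2^(−ΔΔCt) and percent response. K562 or A673 cells were exposed for 24 h to 11 concentrations (3-fold, top final 10 uM).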

MYB = assay: HiBiT protein abundance assay, MYB (K562 HiBiT knock-in); format: cell-based, human; conditions: HiBiT knock-in K562 cells, 24 hours, top dose 10 μM
Summary of the method: (§1)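 K562 HiBiT knock-in, 24 h, 37 °C, top 10 μM final, 3-fold ×10, DMSO ≤0.25%. Lytic HiBiT luminescence; PC = parental K562, NC = DMSO; 4PL IC50.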

HTT = assay: HiBiT protein abundance assay, HTT (K562 HiBiT knock-in); format: cell-based, human; conditions: HiBiT knock-in K562 cells, 24 hours, top dose 10 μM
Summary of the method: as §1

Target C = assay: HiBiT protein abundance assay, Target C (K562 HiBiT knock-in); format: cell-based, human; conditions: HiBiT knock-in K562 cells, 24 hours, top dose 10 μM
Summary of the method: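 K562 HiBiT knock-in cells (10000/well) were treated 24 h at 37° C with a 10-point 3-fold dilution series (top 10 μM final, ≤0.25% DMSO). HiBiT luminescence was read after lytic LgBiT detection. Percent response used unmodified K562 and DMSO-treated knock-in controls, and IC50 came from a four-parameter fit at 50% of untreated.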

K562 cells = assay: Cell Titer Glo 2.0 cell viability (toxicity) assay, K562; conditions: 500 cells/well, 72 hours
[1] = HTT canonical junction mRNA, RT-qPCR, read-out: HTT CJ (decrease in CJ mRNA levels, IC50)
[2] = canonical junction qPCR panel, Table 4, read-out: HTT IC50 (decrease in CJ mRNA levels)

Row | Compound | IC50 (HTT mRNA; [1]) | IC50 (HTT mRNA; [2]) | IC50 (MYB) | IC50 (HTT) | IC50 (Target C) | AC50 (HTT mRNA; RT-qPCR) | Effect of Exemplary Compounds on Cell Viability, K562 (K562 cells)
1 | Cn1cc2cc(-c3ccc4nc([C@@H]5CCNC6(CC6)C5)ccc4n3)c(O)cc2n1 (single isomer, unassigned) [Compound 495] | < 100 nM | < 100 nM | < 100 nM | < 100 nM | < 100 nM | < 100 nM | B (B represents 100-1000 nM)
2 | Cn1cc2cc(-c3ccc4nc([C@H]5CCNC6(CC6)C5)ccc4n3)c(O)cc2n1 (single isomer, unassigned) [Compound 496] | 100 to 1000 nM | 100 to 1000 nM | < 100 nM | < 100 nM | < 100 nM | < 100 nM | B (B represents 100-1000 nM)
3 | Cc1nc2cc(O)c(-c3ccc4nc([C@H]5CCNC6(CC6)C5)ccc4n3)cc2o1 (single isomer, unassigned) [Compound 497] | < 100 nM | < 100 nM | < 100 nM | < 100 nM | < 100 nM | < 100 nM | A (A represents <100 nM)
4 | Cc1nc2cc(O)c(-c3ccc4nc([C@@H]5CCNC6(CC6)C5)ccc4n3)cc2o1 (single isomer, unassigned) [Compound 498] | < 100 nM | < 100 nM | < 100 nM | < 100 nM | < 100 nM | < 100 nM | B (B represents 100-1000 nM)
5 | CNC(=O)c1nc(-c2cc3cn(C)nc3c(C)c2O)nc2ccc(N3C[C@@H](C)N[C@H](C)C3)cc12 (single isomer, unassigned) [Compound 653] | < 100 nM | < 100 nM | < 100 nM | < 100 nM | 100 to 1000 nM | 100 to 1000 nM | A (A represents <100 nM)
6 | CNc1nc(-c2cc3cn(C)nc3c(C)c2O)nc2ccc(N3CCNCC3)cc12 [Compound 508, 2,7-dimethyl-5-[4-(methylamino)-6-(piperazin-1-yl)quinazolin-2-yl]indazol-6-ol] | > 10000 nM | > 10000 nM | 1000 to 10000 nM | > 10000 nM | > 10000 nM | > 10000 nM | –

Further lines, with some results ahead:

Row | IC50 (HTT mRNA; [1]) | IC50 (HTT mRNA; [2]) | IC50 (MYB) | IC50 (HTT) | IC50 (Target C) | Compound | AC50 (HTT mRNA; RT-qPCR) | Effect of Exemplary Compounds on Cell Viability, K562 (K562 cells)
7 | 100 to 1000 nM | 100 to 1000 nM | 100 to 1000 nM | 100 to 1000 nM | 100 to 1000 nM | CN[C@@H]1CCN(c2ccc3nc(-c4cn5cc(C)nc5c(C)c4O)ncc3n2)C1 (single isomer, unassigned) [Compound 504] | 100 to 1000 nM | B (B represents 100-1000 nM)
8 | 100 to 1000 nM | 100 to 1000 nM | < 100 nM | 100 to 1000 nM | 100 to 1000 nM | CNC(=O)c1nc(-c2cc3cn(C)nc3c(C)c2O)nc2ccc(N3CCN[C@@H](C)C3)cc12 (single isomer, unassigned) [Compound 512] | 100 to 1000 nM | A (A represents <100 nM)
9 | < 100 nM | < 100 nM | < 100 nM | < 100 nM | 100 to 1000 nM | CN[C@@H]1CCN(c2ccc3nc(-c4cc5cn(C)nc5c(C)c4O)ncc3c2)C1 (single isomer, unassigned) [Compound 521] | 100 to 1000 nM | A (A represents <100 nM)
10 | < 100 nM | < 100 nM | < 100 nM | 100 to 1000 nM | 100 to 1000 nM | CNC(=O)c1nc(-c2cc3cn(C)nc3c(F)c2O)nc2ccc(N3CCNCC3)cc12 [Compound 506, 2-(7-fluoro-6-hydroxy-2-methylindazol-5-yl)-N-methyl-6-(piperazin-1-yl)quinazoline-4-carboxamide] | 100 to 1000 nM | –
11 | > 10000 nM | > 10000 nM | 1000 to 10000 nM | > 10000 nM | > 10000 nM | Cc1c(O)c(-c2nc(N(C)C)c3cc(N4CCNCC4)ccc3n2)cc2cn(C)nc12 [Compound 509, 5-[4-(dimethylamino)-6-(piperazin-1-yl)quinazolin-2-yl]-2,7-dimethylindazol-6-ol] | > 10000 nM | –
